Data set [1] has as its system HR+/HER2− breast cancer with PIK3CA mutations. To be noted: patients with PIK3CA mutations, few treated with CDK4/6i; cited from earlier work.
Another data set is described as follows: Plasma pharmacokinetics. To be noted: data not shown.

Take `C[C@]12CC[C@@H]3c4ccc(O)cc4C[C@@H](CCCCCCCCC[S+]([O-])CCCC(F)(F)C(F)(F)F)[C@H]3[C@@H]1CC[C@@H]2O` (stereo partly drawn) [fulvestrant]: the ORR in data set [1] is reported as 12.8%. Besides, in the data set “Plasma pharmacokinetics” (fulvestrant predose concentrations), the “effect of molibresib on fulvestrant pharmacokinetics” value is on record as “lack of effect”. Further, in “Plasma pharmacokinetics” (fulvestrant with molibresib, compared with ref 18), the predose concentrations result is on record as “within the range anticipated”.
